US20220372014A1, “NEUROPROTECTIVE COMPOUNDS AND METHODS OF USE THEREOF” (The Johns Hopkins University, priority 2019, published 2022)

Key:
[1] = test system: HeLa cells or neuronal cells; test: Cell death assay of Example 3 (MNNG, alamarBlue; protection against parthanatos, Table 4); type: cell-based; conditions: 1 μM test compound, MNNG-induced cell death, alamarBlue
Description: Cell death assay: 200 μl of cells (HeLa cells or neuronal cells) culture (1×10^4 cells/well) were plated into the wells of a sterile 96-well cell culture plate. The cells were incubated for 18 hours at 37° C. The medium was removed and changed with 100 μl/well of 1 μM test compound. Incubate for 1 hours at 37° C. Ten μl of 500 μM MNNG (N-Methyl-N′-nitro-N-nitrosoguanidine) was added to each well. The medium was aspirated well and incubated for 15 min at 37° C. The cells were washed with the fresh medium. The medium was changed with 1 μM of test compound and incubated for 18 hours at 37° C. 10 μl/well of alamarBlue reagent was added directly to the well and incubated for 1 to 4 hours at 37° C. Fluorescence was measured using a fluorescence excitation wavelength of 560 nm and emission at 590 nm. The percentage of cell death was determined as the ratio of live to dead cells compared with the percentage of cell death in control wells to account for cell death attributed to mechanical stimulation of the cultures.

MIF = molecular target: T1, MIF (Homo sapiens, UniProt P14174); test: Nuclease assay of Example 3 (MIF inhibitory activity, Table 4); type: biochemical; set-up: (%) inhibition of MIF nuclease activity: concentration or dose not given beside the values; conditions: nuclease assay of Example 3
T1 sequence (P14174 1-115): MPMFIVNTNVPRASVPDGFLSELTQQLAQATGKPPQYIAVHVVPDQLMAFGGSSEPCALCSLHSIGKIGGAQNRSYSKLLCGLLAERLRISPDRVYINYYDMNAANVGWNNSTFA
Description: A rapafucin library was synthesized as described in WO2017/136708 and Guo et al. (2018) Nat. Chem. 11:254-63. The hybrid macrocyclic library consisted of 45,000 compounds in pools of 15 individual compounds. The library compounds were screened for MIF inhibitory activity using a nuclease assay as detailed in FIG. 1 and below.
Nuclease assay: Human genomic DNA (200 ng/reaction, Promega), pcDNA (200 ng/reaction) or PS^30 and its related and non-related substrates (1 μM) was incubated with wild type MIF or its variants at a final concentration of 0.25-8 μM as indicated in 10 mM Tris-HCl buffer (pH 7.0) containing 10 mM MgCl2 and 1 mM DTT or specific buffer as indicated, for 1 h (with pcDNA and small DNA substrates) or 4 h (with human genomic DNA) at 37° C. The reaction was terminated with loading buffer containing 10 mM EDTA and incubation on ice. The human genomic DNA samples were immediately separated on a 1.2% pulse field certified agarose in 0.5×TBE buffer with initial switch time of 1.5 s and a final switch time of 3.5 s for 12 h at 6 V/cm. pcDNA samples were determined by 1% agarose gel. Small DNA substrates were separated on 15% or 25% TBE-urea polyacrylamide (PAGE) gel or 20% TBE PAGE gel. Then gel was stained with 0.5 μg/ml Ethidium Bromide (EtBr) followed by electrophoretic transfer to nylon membrane. Then, Biotin-labeled DNA is further detected by chemiluminescence using Chemiluminescent Nucleic Acid Detection Module (Thermo Scientific).
Structure-activity relationship (SAR) analysis was then conducted on the compounds identified as having MIF inhibitory activity. Compounds having the structure of Formula (I) were then synthesized as shown in Example 1 and tested for MIF inhibitory activity using the nuclease assay described herein and neuronal protection via a cell death assay as detailed below.

Structure (SMILES) | (%) inhibition of MIF nuclease activity (MIF) [%] | (%) inhibition of cell death [1] [%]
COc1ccc(CC[C@H]2OC(=O)[C@@H]3CCCCN3C(=O)C(=O)C(C)(C)COC(=O)C=CCCN(C)C(=O)[C@H](Cc3ccc(F)cc3)NC(=O)[C@H](COC(C)(C)C)N(C)C(=O)C(c3ccccc3)NC(=O)[C@H](C)N(C)C(=O)COc3cccc2c3)cc1OC (some centres unmarked) [compound 55] | 13.6 | 59.9
COc1ccc(CC[C@H]2OC(=O)[C@@H]3CCCCN3C(=O)C(=O)C(C)(C)COC(=O)C=CCCN(C)C(=O)[C@H](Cc3ccccc3)NC(=O)[C@H](COC(C)(C)C)N(C)C(=O)[C@H](Cc3ccc4ccccc4c3)NC(=O)[C@H](C)N(C)C(=O)COc3cccc2c3)cc1OC [compound 23] | 45.7 | 58.7
COc1ccc(CC[C@H]2OC(=O)[C@@H]3CCCCN3C(=O)C(=O)C(C)(C)COC(=O)C=CCCN(C)C(=O)[C@@H](C)NC(=O)[C@H](C(C)C)N(C)C(=O)[C@@H](Cc3ccccc3)NC(=O)[C@H](CC(C)C)N(C)C(=O)CCC(=O)Nc3cccc2c3)cc1OC [compound 78] | 9.0 | 44.7
COc1ccc(CC[C@H]2OC(=O)[C@@H]3CCCCN3C(=O)C(=O)C(C)(C)COC(=O)C=CCCN(C)C(=O)[C@@H]3CCCN3C(=O)[C@H](COC(C)(C)C)N(C)C(=O)[C@H](Cc3ccc(F)cc3)NC(=O)[C@H](C)N(C)C(=O)COc3cccc2c3)cc1OC [compound 103] | 16.8 | 22.5
COc1ccc(CC[C@H]2OC(=O)[C@@H]3CCCCN3C(=O)C(=O)C(C)(C)COC(=O)C=CCCN(C)C(=O)CNC(=O)[C@H](Cc3ccccc3)N(C)C(=O)[C@@H](C)NC(=O)CN(C)C(=O)COc3cccc2c3)cc1OC [compound 61] | 19.2 | 53.8
COc1ccc(CC[C@H]2OC(=O)[C@@H]3CCCCN3C(=O)C(=O)C(C)(C)COC(=O)C=CCCN(C)C(=O)[C@H](C)N(C)C(=O)[C@H](COC(C)(C)C)N(C)C(=O)C(c3ccccc3)NC(=O)[C@H](C)N(C)C(=O)COc3cccc2c3)cc1OC (some centres unmarked) [compound 94] | 12.0 | 12.1
COc1ccc(CC[C@H]2OC(=O)[C@@H]3CCCCN3C(=O)C(=O)C(C)(C)COC(=O)C=CCCN(C)C(=O)[C@H](Cc3ccc(F)cc3)NC(=O)[C@H](Cc3ccccc3)N(C)C(=O)[C@@H](C)NC(=O)CN(C)C(=O)COc3cccc2c3)cc1OC [compound 70] | 25.2 | 53.8
COc1ccc(CC[C@H]2OC(=O)[C@@H]3CCCCN3C(=O)C(=O)C(C)(C)COC(=O)C=CCCN(C)C(=O)[C@H](C)NC(=O)[C@H](Cc3ccccc3)N(C)C(=O)[C@@H](C)NC(=O)CN(C)C(=O)COc3cccc2c3)cc1OC [compound 62] | 13.1 | 53.7
COc1ccc(CC[C@H]2OC(=O)[C@@H]3CCCCN3C(=O)C(=O)C(C)(C)COC(=O)C=CCCN(C)C(=O)[C@@H](CC(C)C)NC(=O)[C@H](COC(C)(C)C)N(C)C(=O)[C@H](Cc3ccc4ccccc4c3)NC(=O)[C@H](C)N(C)C(=O)COc3cccc2c3)cc1OC [compound 22] | 61.8 | 56.9
COc1ccc(CC[C@H]2OC(=O)[C@@H]3CCCCN3C(=O)C(=O)C(C)(C)COC(=O)C=CCCN(C)C(=O)[C@@H]3CCCN3C(=O)[C@H](COC(C)(C)C)N(C)C(=O)[C@@H](c3ccccc3)NC(=O)[C@H](C)N(C)C(=O)COc3cc(F)cc2c3)cc1OC (racemic) [compound 153] | 71.7 | 93.2
COc1ccc(CC[C@H]2OC(=O)[C@@H]3CCCCN3C(=O)C(=O)C(C)(C)COC(=O)C=CCCN(C)C(=O)[C@H](C(C)C)NC(=O)[C@H](COC(C)(C)C)N(C)C(=O)[C@H](Cc3ccc4ccccc4c3)NC(=O)[C@H](C)N(C)C(=O)COc3cccc2c3)cc1OC [compound 29] | 12.4 | 57.8
COc1ccc(CC[C@H]2OC(=O)[C@@H]3CCCCN3C(=O)C(=O)C(C)(C)COC(=O)C=CCCN(C)C(=O)[C@H](Cc3ccc4ccccc4c3)NC(=O)[C@H](C(C)C)N(C)C(=O)[C@@H](Cc3ccccc3)NC(=O)[C@H](CC(C)C)N(C)C(=O)CCC(=O)Nc3cccc2c3)cc1OC [compound 88] | 21.3 | 52.7

More lines, main results first:

(%) inhibition of MIF nuclease activity (MIF) [%] | Structure (SMILES) | (%) inhibition of cell death [1] [%]
−4.7 | COc1ccc(CC[C@H]2OC(=O)[C@@H]3CCCCN3C(=O)C(=O)C(C)(C)COC(=O)C=CCCN(C)C(=O)[C@@H]3CCCN3C(=O)[C@H](COC(C)(C)C)N(C)C(=O)C(c3ccccc3)NC(=O)[C@H](C(C)CC(C)(C)C)N(C)C(=O)COc3cccc2c3)cc1OC (some centres unmarked) [compound 147] | 46.2
29.5 | C=CC(=O)OCC(C)(C)C(=O)C(=O)N1CCCC[C@H]1C(=O)O[C@H](CCc1ccc(OC)c(OC)c1)c1cncc(OCC(=O)N(C)[C@@H](C)C(=O)NC(C(=O)N(C)[C@@H](COC(C)(C)C)C(=O)N2CCC[C@H]2C(=O)N(C)CC/C=C\CCO)c2ccccc2)c1 (some centres unmarked) [compound 129] | 43.0
9.0 | COc1ccc(CC[C@H]2OC(=O)[C@@H]3CN(C)CCN3C(=O)C(=O)C(C)(C)COC(=O)C=CCCN(C)C(=O)[C@@H]3CCCN3C(=O)[C@H](COC(C)(C)C)N(C)C(=O)C(c3ccccc3)NC(=O)[C@H](C)N(C)C(=O)COc3cccc2c3)cc1OC (some centres unmarked) [compound 118] | 50.8
0.0 | COc1ccc(CC[C@H]2OC(=O)[C@@H]3CCCCN3C(=O)C(=O)C(C)(C)COC(=O)C=CCCN(C)C(=O)[C@@H]3CCCN3C(=O)[C@H](COC(C)(C)C)N(C)C(=O)[C@H](COC(C)(C)C)NC(=O)[C@H](C)N(C)C(=O)COc3cccc2c3)cc1OC [compound 140] | 51.0
−5.1 | COc1ccc(CC[C@H]2OC(=O)[C@@H]3CCCCN3C(=O)C(=O)C(C)(C)COC(=O)C=CCCN(C)C(=O)[C@@H]3CCCN3C(=O)[C@H](COC(C)(C)C)N(C)C(=O)C(c3ccccc3)NC(=O)[C@H](C)N(C)C(=O)COc3cccc2c3)c(F)c1OC (some centres unmarked) [compound 117] | 51.8
9.3 | COc1cc(F)c(CC[C@H]2OC(=O)[C@@H]3CCCCN3C(=O)C(=O)C(C)(C)COC(=O)C=CCCN(C)C(=O)[C@@H]3CCCN3C(=O)[C@H](COC(C)(C)C)N(C)C(=O)C(c3ccccc3)NC(=O)[C@H](C)N(C)C(=O)COc3cccc2c3)cc1OC (some centres unmarked) [compound 109] | 52.9
6.8 | COc1cc(CC[C@H]2OC(=O)[C@@H]3CCCCN3C(=O)C(=O)C(C)(C)COC(=O)C=CCCN(C)C(=O)[C@@H]3CCCN3C(=O)[C@H](COC(C)(C)C)N(C)C(=O)C(c3ccccc3)NC(=O)[C@H](C)N(C)C(=O)COc3cccc2c3)cc(F)c1OC (some centres unmarked) [compound 111] | 48.9
9.2 | COc1ccc(CC[C@H]2OC(=O)[C@@H]3CCCCN3C(=O)C(=O)C(C)(C)COC(=O)C=CCCN(C)C(=O)[C@@H]3CCCN3C(=O)[C@H](COC(C)(C)C)N(C)C(=O)[C@H](Cc3ccc(O)cc3)N(C)C(=O)[C@H](C)NC(=O)COc3cccc2c3)cc1OC [compound 141] | 46.8
12.0 | COc1ccc(CC[C@H]2OC(=O)[C@@H]3CCCCN3C(=O)C(=O)C(C)(C)COC(=O)C=CCCN(C)C(=O)[C@@H]3CCCN3C(=O)[C@H](COC(C)(C)C)N(C)C(=O)C(c3ccccc3)NC(=O)[C@H](Cc3ccc(O)cc3)N(C)C(=O)COc3cccc2c3)cc1OC (some centres unmarked) [compound 148] | 50.7
26.8 | COc1cc(CC[C@H]2OC(=O)[C@@H]3CCCCN3C(=O)C(=O)C(C)(C)COC(=O)C=CCCN(C)C(=O)[C@@H]3CCCN3C(=O)[C@H](COC(C)(C)C)N(C)C(=O)C(c3ccccc3)NC(=O)[C@H](C)N(C)C(=O)COc3cccc2c3)c(OC)c(OC)c1 (some centres unmarked) [compound 113] | 66.1
